Assay results taken from patent US11078197B2, “5-membered and bicyclic heterocyclic amides as inhibitors of rock” (BRISTOL-MYERS SQUIBB COMPANY, priority 2017, dated 2021).

These molecules were tested against ROCK2 (Homo sapiens (Human), UniProt O75116) (assay: ROCK2 assay (peptide phosphorylation, LABCHIP 3000 Reader)). Conditions: 5 μM ATP, 1.5 μM peptide substrate, dose-response.
Type: biochemical
Experimental: After incubation, the reaction was terminated by the addition of EDTA and the phosphorylated and non-phosphorylated peptides separated using a LABCHIP®3000 Reader (Caliper Life Sciences). […] Compounds were tested in dose-response format, and the inhibition of kinase activity was calculated at each concentration of compound. […] Representative Examples were tested in the ROCK2 assay described above and found having ROCK2 inhibitory activity.

Chain of ROCK2 (O75116 whole entry, species assumed): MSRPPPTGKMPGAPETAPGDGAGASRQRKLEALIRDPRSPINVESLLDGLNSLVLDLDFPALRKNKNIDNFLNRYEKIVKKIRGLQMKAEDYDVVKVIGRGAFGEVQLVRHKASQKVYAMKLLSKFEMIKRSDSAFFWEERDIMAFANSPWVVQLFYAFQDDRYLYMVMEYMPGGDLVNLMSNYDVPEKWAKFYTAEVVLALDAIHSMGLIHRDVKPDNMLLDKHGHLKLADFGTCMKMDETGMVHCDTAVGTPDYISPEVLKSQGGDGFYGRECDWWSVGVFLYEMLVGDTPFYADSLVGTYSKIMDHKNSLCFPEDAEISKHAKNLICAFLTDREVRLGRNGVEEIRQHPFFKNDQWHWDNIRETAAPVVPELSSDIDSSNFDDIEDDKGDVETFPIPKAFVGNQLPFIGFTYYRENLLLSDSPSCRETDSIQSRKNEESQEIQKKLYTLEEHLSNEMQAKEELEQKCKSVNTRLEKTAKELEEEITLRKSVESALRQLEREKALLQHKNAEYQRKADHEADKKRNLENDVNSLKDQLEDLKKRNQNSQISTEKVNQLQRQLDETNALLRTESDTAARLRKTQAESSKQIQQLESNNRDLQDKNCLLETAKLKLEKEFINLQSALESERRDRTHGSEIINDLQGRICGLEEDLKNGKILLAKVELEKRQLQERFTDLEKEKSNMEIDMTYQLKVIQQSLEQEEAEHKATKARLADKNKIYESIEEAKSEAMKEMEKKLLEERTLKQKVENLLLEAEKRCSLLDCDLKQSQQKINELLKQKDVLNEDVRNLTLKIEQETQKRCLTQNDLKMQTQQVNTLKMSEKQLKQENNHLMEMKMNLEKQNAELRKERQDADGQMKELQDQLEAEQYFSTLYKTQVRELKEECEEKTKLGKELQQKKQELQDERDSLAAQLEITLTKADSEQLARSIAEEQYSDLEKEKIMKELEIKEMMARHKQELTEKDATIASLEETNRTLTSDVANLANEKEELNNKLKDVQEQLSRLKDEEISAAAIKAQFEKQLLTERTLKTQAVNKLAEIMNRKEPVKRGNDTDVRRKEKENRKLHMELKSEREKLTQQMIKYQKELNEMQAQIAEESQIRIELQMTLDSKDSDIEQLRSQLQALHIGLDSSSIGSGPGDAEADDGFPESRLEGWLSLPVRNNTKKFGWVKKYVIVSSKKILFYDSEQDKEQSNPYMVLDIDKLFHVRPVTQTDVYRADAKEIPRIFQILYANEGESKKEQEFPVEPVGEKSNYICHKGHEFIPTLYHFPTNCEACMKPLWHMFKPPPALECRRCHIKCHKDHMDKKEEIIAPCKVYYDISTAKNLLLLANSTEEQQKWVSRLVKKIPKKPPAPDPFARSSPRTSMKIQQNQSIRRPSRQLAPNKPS

First: CC(C)(O)COc1ccc2c(C(=O)N[C@H]3C[C@]4(C3)C[C@H](Oc3nn(CCCN)cc3C(N)=O)C4)cnn2c1C1CC1 (stereo partly drawn) [Example 27, 1-(3-aminopropyl)-3-({(aR)-6-[7-cyclopropyl-6-(2-hydroxy-2-methylpropoxy)pyrazolo [1,5-a]pyridine-3-amido]spiro[3.3]heptan-2-yl}oxy)-1H-pyrazole-4-carboxamide]
Second: CC(C)(O)COc1ccc2c(C(=O)N[C@H]3C[C@]4(C3)C[C@H](Oc3nn(CCN)cc3C(N)=O)C4)cnn2c1C1CC1 (stereo partly drawn) [Example 29, 1-(2-aminoethyl)-3-({(aR)-6-[7-cyclopropyl-6-(2-hydroxy-2-methylpropoxy)pyrazolo [1,5-a]pyridine-3-amido]spiro[3.3]heptan-2-yl}oxy)-1H-pyrazole-4-carboxamide]
The IC50 of the first is 18-fold lower: 13.8 nM for the first, 254 nM for the second. The first is the more potent here.

Compared with `CC(C)(O)COc1ccc2c(C(=O)N[C@H]3CC4(C3)C[C@H](Oc3c(C(N)=O)cnn3CCCN)C4)cnn2c1C1CC1` (stereo partly drawn) [Example 28, 1-(3-aminopropyl)-5-({(aR)-6-[7-cyclopropyl-6-(2-hydroxy-2-methylpropoxy)pyrazolo [1,5-a]pyridine-3-amido]spiro[3.3]heptan-2-yl}oxy)-1H-pyrazole-4-carboxamide], `CC(C)(O)COc1ccc2c(C(=O)N[C@H]3C[C@]4(C3)C[C@H](Oc3c(C(N)=O)cnn3C(F)F)C4)cnn2c1C1CC1` (stereo partly drawn) [Example 39, 5-({(aR)-6-[7-cyclopropyl-6-(2-hydroxy-2-methylpropoxy)pyrazolo [1,5-a]pyridine-3-amido]spiro[3.3]heptan-2-yl}oxy)-1-(difluoromethyl)-1H-pyrazole-4-carboxamide] is 4.4-fold higher in IC50: 551 nM for the first, 2400 nM for the second. The first is the more potent here.

First: CC(C)(O)COc1ccc2c(C(=O)N[C@H]3C[C@]4(C3)C[C@H](Oc3nn(C(F)F)cc3C(N)=O)C4)cnn2c1C1CC1 (stereo partly drawn) [Example 30, 3-({(aR)-6-[7-cyclopropyl-6-(2-hydroxy-2-methylpropoxy)pyrazolo [1,5-a]pyridine-3-aimdo]spiro[3.3]heptan-2-yl}oxy)-1-(difluoromethyl)-1H-pyrazole-4-carboxamide]
Second: Cc1c(C(N)=O)c(O[C@H]2C[C@@]3(C[C@H](NC(=O)c4cnn5c(C6CC6)c(OCC(C)(C)O)ccc45)C3)C2)nn1C (stereo partly drawn) [Example 37, 3-({(aR)-6-[7-cyclopropyl-6-(2-hydroxy-2-methylpropoxy)pyrazolo[1,5-a]pyridine-3-amido]spiro[3.3]heptan-2-yl}oxy)-1,5-dimethyl-1H-pyrazole-4-carboxamide]
The IC50 of the first is 34-fold lower: 7.7 nM for the first, 259 nM for the second.

Going from `CC(C)(O)COc1ccc2c(C(=O)N[C@H]3C[C@]4(C3)C[C@H](Oc3nn(-c5ccccc5C#N)cc3C(N)=O)C4)cnn2c1C1CC1` (stereo partly drawn) [Example 31, 1-(2-cyanophenyl)-3-({(aR)-6-[7-cyclopropyl-6-(2-hydroxy-2-methylpropoxy)pyrazolo [1,5-a]pyridine-3-amido]spiro[3.3]heptan-2-yl}oxy)-1H-pyrazole-4-carboxamide] to `CC(C)(O)COc1ccc2c(C(=O)N[C@H]3C[C@]4(C3)C[C@H](Oc3nn(-c5ccccc5)cc3C(N)=O)C4)nn(C(F)F)c2c1` (stereo partly drawn) [Example 42, 1-(difluoromethyl)-6-(2-hydroxy-2-methylpropoxy)-N-[(aR)-6-[(4-carbamoyl-1-phenyl-1H-pyrazol-3-yl)oxy]spiro[3.3]heptan-2-yl]-1H-indazole-3-carboxamide], the IC50 falls from 73.3 nM to 13.7 nM (5.4-fold).

Compared with `Cn1cc(C(N)=O)c(O[C@H]2C[C@@]3(C[C@H](NC(=O)c4cnn5cc(N6CCOCC6)ccc45)C3)C2)n1` (stereo partly drawn) [Example 32, 1-methyl-3-({(aR)-6-[6-(morpholin-4-yl)pyrazolo[1,5-a]pyridine-3-amido]spiro[3.3]heptan-2-yl}oxy)-1H-pyrazole-4-carboxamide], `CN1CCN(c2ccc3c(C(=O)N[C@H]4C[C@]5(C4)C[C@H](Oc4nn(C)cc4C(N)=O)C5)cnn3c2)CC1` (stereo partly drawn) [Example 35, 1-methyl-3-({(aR)-6-[6-(4-methylpiperazin-1-yl)pyrazolo[1,5-a]pyridine-3-amido]spiro[3.3]heptan-2-yl}oxy)-1H-pyrazole-4-carboxamide] is 6.8-fold higher in IC50: 29.9 nM for the first, 202 nM for the second.

First: Cn1cc(C(N)=O)c(O[C@H]2C[C@@]3(C[C@H](NC(=O)c4cnn5cc(N6CC7(COC7)C6)ccc45)C3)C2)n1 (stereo partly drawn) [Example 33, 1-methyl-3-{[(aR)-6-(6-{2-oxa-6-azaspiro[3.3]heptan-6-yl}pyrazolo[1,5-a]pyridine-3-amido)spiro[3.3]heptan-2-yl]oxy}-1H-pyrazole-4-carboxamide]
Second: Cc1nc(O[C@H]2C[C@@]3(C[C@H](NC(=O)c4cnn5cc(N6CC(CO)(CCl)C6)ccc45)C3)C2)c(C(N)=O)s1 (stereo partly drawn) [Example 34, 4-[((aR)-6-{6-[3-(chloromethyl)-3-(hydroxymethyl)azetidin-1-yl]pyrazolo[1,5-a]pyridine-3-amido}spiro[3.3]heptan-2-yl)oxy]-2-methyl-1,3-thiazole-5-carboxamide]
The IC50 of the first is 20-fold higher: 347 nM for the first, 17.2 nM for the second.

Going from `Cn1cc(C(N)=O)c(O[C@H]2C[C@@]3(C[C@H](NC(=O)c4nn(C(F)F)c5cc(OCC(C)(C)O)ccc45)C3)C2)n1` (stereo partly drawn) [Example 36, N-{(aR)-6-[(4-carbamoyl-1-methyl-1H-pyrazol-3-yl)oxy]spiro[3.3]heptan-2-yl}-1-(difluoromethyl)-6-(2-hydroxy-2-methylpropoxy)-1H-indazole-3-carboxamide] to `COc1ccc(-n2ncc(C(=O)N[C@H]3C[C@]4(C3)C[C@H](Oc3nn(C)cc3C(N)=O)C4)c2C)cn1` (stereo partly drawn) [Example 48, 1-(6-methoxypyridin-3-yl)-5-methyl-N-[(aR)-6-[(4-carbamoyl-1-methyl-1H-pyrazol-3-yl)oxy]spiro[3.3]heptan-2-yl]-1H-pyrazole-4-carboxamide], the IC50 rises from 22.4 nM to 685 nM (31-fold). The first is the more potent here.

`Cc1c(C(=O)N[C@H]2C[C@]3(C2)C[C@H](Oc2nn(-c4ccccc4)cc2C(N)=O)C3)cnn1-c1ccc(C#N)cc1` (stereo partly drawn) [Example 38, 3-({(aR)-6-[1-(4-cyanophenyl)-5-methyl-1H-pyrazole-4-amido]spiro[3.3]heptan-2-yl}oxy)-1-phenyl-1H-pyrazole-4-carboxamide] and `Cc1c(C(=O)N[C@H]2C[C@]3(C2)C[C@H](Oc2nn(-c4ccccc4)cc2C(N)=O)C3)cnn1-c1ccc(Cl)cc1` (stereo partly drawn) [Example 49, 1-phenyl-3-{[(aR)-6-[1-(4-chlorophenyl)-5-methyl-1H-pyrazole-4-amido]spiro[3.3]heptan-2-yl]oxy}-1H-pyrazole-4-carboxainide] are within 1.5-fold of each other in IC50: 426 nM for the first, 450 nM for the second.

First: NC(=O)c1cn(-c2ccccc2)nc1O[C@H]1C[C@@]2(C[C@H](NC(=O)c3cnn4cc(OCCC(F)(F)F)ccc34)C2)C1 (stereo partly drawn) [Example 40, 1-phenyl-3-{[(aR)-6-[6-(3,3,3-trifluoropropoxy)pyrazolo[1,5-a]pyridine-3-amido]spiro[3.3]heptan-2-yl]oxy}-1H-pyrazole-4-carboxamide]
Second: NC(=O)c1cn(C(F)F)nc1O[C@H]1C[C@@]2(C[C@H](NC(=O)c3cnn4cc(OCC(O)(C(F)(F)F)C(F)(F)F)ccc34)C2)C1 (stereo partly drawn) [Example 52, 1-(difluoromethyl)-3-{[(aR)-6-{6-[3,3,3-trifluoro-2-hydxoxy-2-(trifluoromethyl)propoxy]pyrazolo [1,5-a]pyridine-3-amido}spiro[3.3]heptan-2-yl]oxy}-1H-pyrazole-4-carboxamide]
The IC50 of the first is 4-fold higher: 136 nM for the first, 33.9 nM for the second. The second is the more potent here.

Compared with `N#Cc1cc(C(=O)N[C@H]2C[C@]3(C2)C[C@H](Oc2nn(-c4ccccc4)cc2C(N)=O)C3)cc(-c2cnn(C(F)F)c2)c1` (stereo partly drawn) [Example 41, 1-phenyl-3-{[(aR)-6-{3-cyano-5-[1-(difluoromethyl)-1H-pyrazol-4-yl]benzamido}spiro [3.3]heptan-2-yl]oxy}-1H-pyrazole-4-carboxamide], `Cc1c(C(=O)N[C@H]2C[C@]3(C2)C[C@H](Oc2nn(C)cc2C(N)=O)C3)cnn1-c1ccc(C#N)cc1` (stereo partly drawn) [Example 46, 1-(4-cyanophenyl)-5-methyl-N-[(aR)-6-[(4-carbamoyl-1-methyl-1H-pyrazol-3-yl)oxy]spiro[3.3]heptan-2-yl]-1H-pyrazole-4-carboxamide] is 6.5-fold higher in IC50: 55.6 nM for the first, 359 nM for the second. The first is the more potent here.

First: Cc1nc(O[C@H]2C[C@@]3(C[C@H](NC(=O)c4cnn(-c5ccc(C#N)cc5)c4C)C3)C2)c(C(N)=O)s1 (stereo partly drawn) [Example 43, 2-methyl-4-{[(aR)-6-[1-(4-cyanophenyl)-5-methyl-1H-pyrazole-4-amido]spiro[3.3]heptan-2-yl]oxy}-1,3-thiazole-5-carboxamide]
Second: Cc1c(C(=O)N[C@H]2C[C@]3(C2)C[C@H](Oc2nc(C4CC4)sc2C(N)=O)C3)cnn1-c1ccc(C#N)cc1 (stereo partly drawn) [Example 44, 2-cyclopropyl-4-{[(aR)-6-[1-(4-cyanophenyl)-5-methyl-1H-pyrazole-4-amido]spiro[3.3]heptan-2-yl]oxy}-1,3-thiazole-5-carboxamide]
The IC50 of the first is 4.7-fold higher: 119 nM for the first, 25.2 nM for the second. The second is the more potent here.

Going from `Cc1c(C(=O)N[C@H]2C[C@]3(C2)C[C@H](Oc2nc(C4CC4)sc2C(N)=O)C3)cnn1-c1ccc(Cl)cc1` (stereo partly drawn) [Example 45, 2-cyclopropyl-4-{[(aR)-6-[1-(4-chlorophenyl)-5-methyl-1H-pyrazole-4-amido]spiro[3.3]heptan-2-yl]oxy}-1,3-thiazole-5-carboxamide] to `Cc1c(C(=O)N[C@H]2C[C@]3(C2)C[C@H](Oc2nn(C4CC4)cc2C(N)=O)C3)cnn1-c1ccc(Cl)cc1` (stereo partly drawn) [Example 51, 1-cyclopropyl-3-{[(aR)-6-[1-(4-chlorophenyl)-5-methyl-1H-pyrazole-4-amido]spiro[3.3]heptan-2-yl]oxy}-1H-pyrazole-4-carboxamide], the IC50 rises from 25 nM to 44.8 nM (1.8-fold). The first is the more potent here.

Going from `Cc1c(C(=O)N[C@H]2C[C@]3(C2)C[C@H](Oc2nn(C)cc2C(N)=O)C3)cnn1-c1ccc(Cl)cc1` (stereo partly drawn) [Example 47, 1-(4-chlorophenyl)-5-methyl-N-[(aR)-6-[(4-carbamoyl-1-methyl-1H-pyrazol-3-yl)oxy]spiro[3.3]heptan-2-yl]-1H-pyrazole-4-carboxamide] to `COc1ccc(-n2ncc(C(=O)N[C@H]3C[C@]4(C3)C[C@H](Oc3nn(C5CC5)cc3C(N)=O)C4)c2C)cn1` (stereo partly drawn) [Example 50, 1-cyclopropyl-3-{[(aR)-6-[1-(6-methoxypyridin-3-yl)-5-methyl-1H-pyrazole-4-amido]spiro[3.3]heptan-2-yl]oxy}-1H-pyrazole-4-carboxamide], the IC50 rises from 113 nM to 322 nM (2.8-fold). The first is the more potent here.
